# Values quoted from earlier work in article PMC6394493 (Cancer Chemotherapy and Pharmacology, 2018).
# Test system: pS6
# Parameters: method as in PMID 25673697
# Details: patients with advanced solid tumors; cited from earlier work
structure (smiles),measurement,value
CO[C@H]1C[C@@H]2CC[C@@H](C)[C@@](O)(O2)C(=O)C(=O)N2CCCC[C@H]2C(=O)O[C@H]([C@H](C)C[C@@H]2CC[C@@H](OCCO)[C@H](OC)C2)CC(=O)[C@H](C)/C=C(\C)[C@@H](O)[C@@H](OC)C(=O)[C@H](C)C[C@H](C)/C=C/C=C/C=C/1C [everolimus],changes in pS6 in skin biopsies,induce changes in pS6
